Drawing on ChEMBL document CHEMBL4152339, “Design and synthesis of novel 1H-tetrazol-5-amine based potent antimicrobial agents: DNA topoisomerase IV and gyrase affinity evaluation supported by molecular docking studies” (Eur J Med Chem, 2018), this text covers MIC, IC50 and selectivity ratio for 3 compounds.

Structures are written as SMILES. In brackets after ≈: the same amount, converted by molar mass.

The first series deals with Micrococcus luteus. The series can be described thus: Antibacterial activity against Micrococcus luteus ATCC 10240 after 18 hrs by CLSI disc diffusion method. It counts as functional. Conditions: ATCC 10240, 18 h.
`FC(F)(F)c1ccc(-n2nnnc2Nc2nccs2)cc1` came in with an MIC of 51 µM (≈ 15.9 µg/mL).
`Brc1ccc(-n2nnnc2Nn2cnnc2)cc1`: the lowest concentration to inhibit growth (MIC) was 26 µM (≈ 7.98 µg/mL).

The subject of another series is Proteus vulgaris. The series can be described thus: Antibacterial activity against Proteus vulgaris NCTC 4635 after 18 hrs by CLSI disc diffusion method. The series is classed as functional. Conditions: NCTC 4635, 18 h.
Compound `FC(F)(F)c1ccc(-n2nnnc2Nc2nccs2)cc1` gave an MIC of 411 µM (≈ 128 µg/mL).
`Brc1ccc(-n2nnnc2Nn2cnnc2)cc1` displayed an MIC of 13 µM (≈ 3.99 µg/mL).

In another series the test system is Staphylococcus aureus. As to the kind of experiment: Antibacterial activity against Staphylococcus aureus NCTC 4163 after 18 hrs by CLSI disc diffusion method. It counts as functional. Particulars: NCTC 4163, 18 h.
For the compound `FC(F)(F)c1ccc(-n2nnnc2Nc2nccs2)cc1`, it took 51 µM (≈ 15.9 µg/mL) to inhibit growth (MIC).
`Brc1ccc(-n2nnnc2Nn2cnnc2)cc1`: the lowest concentration to inhibit growth (MIC) was 52 µM (≈ 16 µg/mL).

Another series relates to Escherichia coli. The series can be described thus: Antibacterial activity against Escherichia coli ATCC 10538 after 18 hrs by CLSI disc diffusion method. It counts as functional. Conditions: ATCC 10538, 18 h.
`FC(F)(F)c1ccc(-n2nnnc2Nc2nccs2)cc1` yielded a minimum inhibitory concentration (MIC) of 411 µM (≈ 128 µg/mL).
`Brc1ccc(-n2nnnc2Nn2cnnc2)cc1`: the minimal inhibitory concentration (MIC) came out at 52 µM (≈ 16 µg/mL).

The next series deals with HaCaT. As to the kind of experiment: Cytotoxicity activity against human HaCaT cells assessed as reduction in cell viability after 72 hrs by MTT assay. It counts as cell-based.
Details: not given
Regarding `FC(F)(F)c1ccc(-n2nnnc2Nc2nccs2)cc1`, the IC50 worked out at 80 µM.
For `Brc1ccc(-n2nnnc2Nn2cnnc2)cc1`, the 50% inhibitory concentration (IC50) worked out at 65 µM.
In the case of `COc1cccc2c1C(=O)c1c(O)c3c(c(O)c1C2=O)C[C@@](O)(C(=O)CO)C[C@@H]3O[C@H]1C[C@H](N)[C@H](O)[C@H](C)O1` [DOXORUBICIN], the half-maximal inhibitory concentration (IC50) was 1.09 µM.

System in the next series: not listed separately
As to the kind of experiment: Selectivity index, ratio of IC50 for human HaCaT cells to MIC for Enterococcus hirae ATCC 10541. The series is classed as toxicity. Particulars: read-out: Selectivity Index.
Consider `FC(F)(F)c1ccc(-n2nnnc2Nc2nccs2)cc1`, for which the selectivity ratio amounted to 1.56.
On to `Brc1ccc(-n2nnnc2Nn2cnnc2)cc1`, for which the selectivity ratio was determined as 1.25.

The test system of another series is Bacillus cereus. The series can be described thus: Antibacterial activity against Bacillus cereus ATCC 11778 after 18 hrs by CLSI disc diffusion method. It counts as functional. Conditions: ATCC 11778, 18 h.
In the case of `FC(F)(F)c1ccc(-n2nnnc2Nc2nccs2)cc1`, inhibition of growth (MIC) required 26 µM (≈ 8.12 µg/mL).
`Brc1ccc(-n2nnnc2Nn2cnnc2)cc1` registered an MIC of 26 µM (≈ 7.98 µg/mL). That is a double-digit micromolar value.

System in the next series: not listed separately
As to the kind of experiment: Selectivity index, ratio of IC50 for human HaCaT cells to MIC for Staphylococcus aureus NCTC 4163. Conditions: read-out: Selectivity Index. The series is classed as toxicity.
Take `FC(F)(F)c1ccc(-n2nnnc2Nc2nccs2)cc1`: the selectivity ratio is 1.56.
In the case of `Brc1ccc(-n2nnnc2Nn2cnnc2)cc1`, the selectivity ratio amounted to 1.25.

System in the next series: not listed separately
The series can be described thus: Selectivity index, ratio of IC50 for human HaCaT cells to MIC for Micrococcus luteus ATCC 10240. Conditions: read-out: Selectivity Index. It counts as toxicity.
For `FC(F)(F)c1ccc(-n2nnnc2Nc2nccs2)cc1`, the selectivity ratio stood at 1.56.
With `Brc1ccc(-n2nnnc2Nn2cnnc2)cc1`, the selectivity ratio worked out at 2.5.

System in another series: not listed separately
As to the kind of experiment: Selectivity index, ratio of IC50 for human HaCaT cells to MIC for Proteus vulgaris NCTC 4635. Conditions: read-out: Selectivity Index. The series is classed as toxicity.
`FC(F)(F)c1ccc(-n2nnnc2Nc2nccs2)cc1`: the selectivity ratio was found to be 0.19.
The same measure, in the same setting: in the case of `Brc1ccc(-n2nnnc2Nn2cnnc2)cc1` it was 5.

The next series deals with Micrococcus luteus. As to the kind of experiment: Antibacterial activity against Micrococcus luteus ATCC 9341 after 18 hrs by CLSI disc diffusion method. It counts as functional. Particulars: ATCC 9341, 18 h.
`FC(F)(F)c1ccc(-n2nnnc2Nc2nccs2)cc1`: the minimal inhibitory concentration (MIC) was 6 µM (≈ 1.87 µg/mL). In other words, the single-digit micromolar range.
The same measure, in the same setting: the value for `Brc1ccc(-n2nnnc2Nn2cnnc2)cc1` was 26 µM (≈ 7.98 µg/mL).

A further series deals with A549. As to the kind of experiment: Cytotoxicity activity against human A549 cells assessed as reduction in cell viability after 72 hrs by MTT assay. It counts as cell-based. Conditions: A549, 72 h.
As to `FC(F)(F)c1ccc(-n2nnnc2Nc2nccs2)cc1`, the half-maximal inhibitory concentration (IC50) was found to be 76 µM.
On to `Brc1ccc(-n2nnnc2Nn2cnnc2)cc1`, for which the IC50 was 62 µM.
In the case of `COc1cccc2c1C(=O)c1c(O)c3c(c(O)c1C2=O)C[C@@](O)(C(=O)CO)C[C@@H]3O[C@H]1C[C@H](N)[C@H](O)[C@H](C)O1` [DOXORUBICIN], the IC50 was determined as 0.63 µM.

System in another series: not listed separately
As to the kind of experiment: Selectivity index, ratio of IC50 for human HaCaT cells to MIC for Escherichia coli ATCC 10538. The series is classed as toxicity. Conditions: read-out: Selectivity Index.
Turning to `FC(F)(F)c1ccc(-n2nnnc2Nc2nccs2)cc1`, the selectivity ratio amounted to 0.19.
Consider `Brc1ccc(-n2nnnc2Nn2cnnc2)cc1`, for which the selectivity ratio was 1.25.

The test system of another series is Staphylococcus aureus. The series can be described thus: Antibacterial activity against Staphylococcus aureus ATCC 25923 after 18 hrs by CLSI disc diffusion method. It counts as functional. Particulars: ATCC 25923, 18 h.
`FC(F)(F)c1ccc(-n2nnnc2Nc2nccs2)cc1` yielded an MIC of 26 µM (≈ 8.12 µg/mL).
`Brc1ccc(-n2nnnc2Nn2cnnc2)cc1` came in with an MIC of 52 µM (≈ 16 µg/mL). Against the preceding compound, the MIC is about 2-fold higher.

In another series the test system is Staphylococcus epidermidis. As to the kind of experiment: Antibacterial activity against Staphylococcus epidermidis ATCC 35984 after 18 hrs by CLSI […] method. Particulars: ATCC 35984, 18 h. It counts as functional.
`FC(F)(F)c1ccc(-n2nnnc2Nc2nccs2)cc1` yielded an MIC of 6 µM (≈ 1.87 µg/mL).
The same measure, in the same setting: the value for `Brc1ccc(-n2nnnc2Nn2cnnc2)cc1` was 13 µM (≈ 3.99 µg/mL).

The next series concerns Enterococcus faecalis. The series can be described thus: Antibacterial activity against Enterococcus faecalis ATCC 29212 after 18 hrs by CLSI disc diffusion method. The series is classed as functional. Particulars: ATCC 29212, 18 h.
As for `FC(F)(F)c1ccc(-n2nnnc2Nc2nccs2)cc1`, the minimum inhibitory concentration (MIC) amounted to 51 µM (≈ 15.9 µg/mL).
Compound `Brc1ccc(-n2nnnc2Nn2cnnc2)cc1` yielded an MIC of 52 µM (≈ 16 µg/mL).

A further series relates to Pseudomonas aeruginosa. The series can be described thus: Antibacterial activity against Pseudomonas aeruginosa ATCC 27853 after 18 hrs by CLSI disc diffusion method. It counts as functional. Conditions: ATCC 27853, 18 h.
With `FC(F)(F)c1ccc(-n2nnnc2Nc2nccs2)cc1`, the minimum inhibitory concentration (MIC) worked out at 411 µM (≈ 128 µg/mL).
Still for that read-out and setting: in the case of `Brc1ccc(-n2nnnc2Nn2cnnc2)cc1` it was 834 µM (≈ 256 µg/mL).

System in another series: not listed separately
As to the kind of experiment: Selectivity index, ratio of IC50 for human HaCaT cells to MIC for Bordetella bronchiseptica ATCC 4617. It counts as toxicity. Particulars: read-out: Selectivity Index.
As to `FC(F)(F)c1ccc(-n2nnnc2Nc2nccs2)cc1`, the selectivity ratio turned out to be 0.39.
Consider `Brc1ccc(-n2nnnc2Nn2cnnc2)cc1`, for which the selectivity ratio was determined as 0.31.

System in a further series: not listed separately
The series can be described thus: Selectivity index, ratio of IC50 for human HaCaT cells to MIC for Bacillus subtilis ATCC 6633. The series is classed as toxicity. Conditions: read-out: Selectivity Index.
Consider `FC(F)(F)c1ccc(-n2nnnc2Nc2nccs2)cc1`, for which the selectivity ratio was found to be 3.07.
Turning to `Brc1ccc(-n2nnnc2Nn2cnnc2)cc1`, the selectivity ratio amounted to 2.5.

A further series deals with Pseudomonas aeruginosa. As to the kind of experiment: Antibacterial activity against Pseudomonas aeruginosa ATCC 15442 after 18 hrs by CLSI disc diffusion method. It counts as functional. Particulars: ATCC 15442, 18 h.
The compound `FC(F)(F)c1ccc(-n2nnnc2Nc2nccs2)cc1` registered an MIC of 411 µM (≈ 128 µg/mL).
With `Brc1ccc(-n2nnnc2Nn2cnnc2)cc1`, it took 834 µM (≈ 256 µg/mL) to inhibit growth (MIC).

The test system of another series is Staphylococcus epidermidis. As to the kind of experiment: Antibacterial activity against Staphylococcus epidermidis ATCC 12228 after 18 hrs by CLSI disc diffusion method. The series is classed as functional. Particulars: ATCC 12228, 18 h.
The compound `FC(F)(F)c1ccc(-n2nnnc2Nc2nccs2)cc1` returned a minimum inhibitory concentration (MIC) of 13 µM (≈ 4.06 µg/mL).
Still for that read-out and setting: in the case of `Brc1ccc(-n2nnnc2Nn2cnnc2)cc1` it was 26 µM (≈ 7.98 µg/mL).

In a further series the test system is Bordetella bronchiseptica. As to the kind of experiment: Antibacterial activity against Bordetella bronchiseptica ATCC 4617 after 18 hrs by CLSI disc diffusion method. The series is classed as functional. Particulars: ATCC 4617, 18 h.
In turn, `FC(F)(F)c1ccc(-n2nnnc2Nc2nccs2)cc1` showed an MIC of 205 µM (≈ 64 µg/mL).
`Brc1ccc(-n2nnnc2Nn2cnnc2)cc1` showed a minimum inhibitory concentration (MIC) of 209 µM (≈ 64.2 µg/mL). This MIC and that of the compound before are within 1.5-fold of each other.

The next series concerns Enterococcus hirae. The series can be described thus: Antibacterial activity against Enterococcus hirae ATCC 10541 after 18 hrs by CLSI disc diffusion method. It counts as functional. Particulars: ATCC 10541, 18 h.
For `FC(F)(F)c1ccc(-n2nnnc2Nc2nccs2)cc1`, the MIC amounted to 51 µM (≈ 15.9 µg/mL).
For the compound `Brc1ccc(-n2nnnc2Nn2cnnc2)cc1`, the minimal inhibitory concentration (MIC) came out at 52 µM (≈ 16 µg/mL). This MIC and that of the compound before are within 1.5-fold of each other.

A further series deals with Bacillus spizizenii. The series can be described thus: Antibacterial activity against Bacillus subtilis ATCC 6633 after 18 hrs by CLSI disc diffusion method. It counts as functional. Conditions: ATCC 6633, 18 h.
For the compound `FC(F)(F)c1ccc(-n2nnnc2Nc2nccs2)cc1`, the MIC was found to be 26 µM (≈ 8.12 µg/mL).
Compound `Brc1ccc(-n2nnnc2Nn2cnnc2)cc1` yielded an MIC of 26 µM (≈ 7.98 µg/mL).

A further series has as its system Staphylococcus aureus. The series can be described thus: Antibacterial activity against Staphylococcus aureus ATCC 6538 after 18 hrs by CLSI disc diffusion method. It counts as functional. Particulars: ATCC 6538, 18 h.
Turning to `FC(F)(F)c1ccc(-n2nnnc2Nc2nccs2)cc1`, the MIC worked out at 51 µM (≈ 15.9 µg/mL). This counts as double-digit micromolar.
The compound `Brc1ccc(-n2nnnc2Nn2cnnc2)cc1` came in with a minimal inhibitory concentration (MIC) of 52 µM (≈ 16 µg/mL).
